Measured values from PubChem BioAssay (NCI).
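Step 1: Grow cells in 96-well plates. Step 2: Expose to compound for 48 hours at 5 concentrations. Step 3: Interpolate endpoints linearly; if unreached, use highest concentration. At the TGI there is no net growth.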

These compounds were tested on SW-620 colon (assay: NCI-60 cell line screen, 48 h).
`Cc1nc2sc3ccccc3n2c(=O)c1N=Nc1ccc(Cl)cc1` was tested, and the TGI was > 100 µM.
In the case of `O=C1O[C@H](c2ccc3c(c2)OCO3)[C@H]2CO[C@@H](c3ccc4c(c3)OCO4)[C@@H]12`, the TGI is reported as > 100 µM.
`Cc1ccc2c(c1)C(=O)C1(C2)Cc2cccc(C)c2C1=O` (centres undefined) was tested, and the TGI was > 100 µM.
`O=C1NC(=O)C(CC2CCCCCCCCCCC2=O)C(=O)N1` (centres undefined) was tested, and the TGI was > 100 µM.
`Cc1cc(NCc2ccccc2)c2ccccc2[n+]1CCCCCCCCCC[n+]1c(C)cc(NCc2ccccc2)c2ccccc21` gave a TGI of 4.31 µM.
In the case of `Nc1ccc(S(=O)(=O)Nc2nccs2)cc1`, the TGI is reported as > 100 µM.
For `CCOc1ccc(/C=C2/C(=O)N=C(NC(C)=O)N2C)cc1`, the TGI was > 100 µM.

These compounds were tested on MOLT-4 leukemia (assay: NCI-60 cell line screen, 48 h).
`Cc1nc2sc3ccccc3n2c(=O)c1N=Nc1ccc(Cl)cc1` was tested, and the TGI was > 100 µM.
`O=C1O[C@H](c2ccc3c(c2)OCO3)[C@H]2CO[C@@H](c3ccc4c(c3)OCO4)[C@@H]12` was tested, and the TGI was > 100 µM.
With `Cc1ccc2c(c1)C(=O)C1(C2)Cc2cccc(C)c2C1=O` (centres undefined) the TGI was > 100 µM.
In the case of `O=C1NC(=O)C(CC2CCCCCCCCCCC2=O)C(=O)N1` (centres undefined), the TGI is reported as > 100 µM.
For `Nc1ccc(S(=O)(=O)Nc2nccs2)cc1`, the TGI was > 100 µM.
`CCOc1ccc(/C=C2/C(=O)N=C(NC(C)=O)N2C)cc1` was tested, and the TGI was > 100 µM.

The compounds below were run on HCC-2998 colon (assay: NCI-60 cell line screen, 48 h).
In the case of `O=C1O[C@H](c2ccc3c(c2)OCO3)[C@H]2CO[C@@H](c3ccc4c(c3)OCO4)[C@@H]12`, the TGI is reported as > 100 µM.
In the case of `Cc1ccc2c(c1)C(=O)C1(C2)Cc2cccc(C)c2C1=O` (centres undefined), the TGI is reported as > 100 µM.
For `O=C1NC(=O)C(CC2CCCCCCCCCCC2=O)C(=O)N1` (centres undefined), the TGI was > 100 µM.
Compound `Cc1cc(NCc2ccccc2)c2ccccc2[n+]1CCCCCCCCCC[n+]1c(C)cc(NCc2ccccc2)c2ccccc21` has a TGI of 1.79 µM.
In the case of `Nc1ccc(S(=O)(=O)Nc2nccs2)cc1`, the TGI is reported as > 100 µM.
For `CCOc1ccc(/C=C2/C(=O)N=C(NC(C)=O)N2C)cc1`, the TGI was > 100 µM.

Each compound was assayed on RPMI-8226 leukemia (assay: NCI-60 cell line screen, 48 h).
`Cc1nc2sc3ccccc3n2c(=O)c1N=Nc1ccc(Cl)cc1` was tested, and the TGI was > 100 µM.
In the case of `O=C1O[C@H](c2ccc3c(c2)OCO3)[C@H]2CO[C@@H](c3ccc4c(c3)OCO4)[C@@H]12`, the TGI is reported as > 100 µM.
For `Cc1ccc2c(c1)C(=O)C1(C2)Cc2cccc(C)c2C1=O` (centres undefined), the TGI was > 100 µM.
With `Cc1cc(NCc2ccccc2)c2ccccc2[n+]1CCCCCCCCCC[n+]1c(C)cc(NCc2ccccc2)c2ccccc21` the TGI was 1.44 µM.
`Nc1ccc(S(=O)(=O)Nc2nccs2)cc1` was tested, and the TGI was > 100 µM.

These compounds were tested on ACHN renal (assay: NCI-60 cell line screen, 48 h).
For `Cc1nc2sc3ccccc3n2c(=O)c1N=Nc1ccc(Cl)cc1`, the TGI was > 100 µM.
For `O=C1O[C@H](c2ccc3c(c2)OCO3)[C@H]2CO[C@@H](c3ccc4c(c3)OCO4)[C@@H]12`, the TGI was > 100 µM.
For `Cc1ccc2c(c1)C(=O)C1(C2)Cc2cccc(C)c2C1=O` (centres undefined), the TGI was > 100 µM.
With `O=C1NC(=O)C(CC2CCCCCCCCCCC2=O)C(=O)N1` (centres undefined) the TGI was > 100 µM.
In the case of `Cc1cc(NCc2ccccc2)c2ccccc2[n+]1CCCCCCCCCC[n+]1c(C)cc(NCc2ccccc2)c2ccccc21`, the TGI is reported as 2.92 µM.
With `Nc1ccc(S(=O)(=O)Nc2nccs2)cc1` the TGI was > 100 µM.
`CCOc1ccc(/C=C2/C(=O)N=C(NC(C)=O)N2C)cc1` was tested, and the TGI was > 100 µM.

These compounds were tested on SF-539 CNS (assay: NCI-60 cell line screen, 48 h).
In the case of `Cc1nc2sc3ccccc3n2c(=O)c1N=Nc1ccc(Cl)cc1`, the TGI is reported as > 100 µM.
In the case of `O=C1O[C@H](c2ccc3c(c2)OCO3)[C@H]2CO[C@@H](c3ccc4c(c3)OCO4)[C@@H]12`, the TGI is reported as > 100 µM.
`Cc1ccc2c(c1)C(=O)C1(C2)Cc2cccc(C)c2C1=O` (centres undefined) was tested, and the TGI was > 100 µM.
For `O=C1NC(=O)C(CC2CCCCCCCCCCC2=O)C(=O)N1` (centres undefined), the TGI was > 100 µM.
`Cc1cc(NCc2ccccc2)c2ccccc2[n+]1CCCCCCCCCC[n+]1c(C)cc(NCc2ccccc2)c2ccccc21` gave a TGI of 1.13 µM.
For `Nc1ccc(S(=O)(=O)Nc2nccs2)cc1`, the TGI was > 100 µM.
For `CCOc1ccc(/C=C2/C(=O)N=C(NC(C)=O)N2C)cc1`, the TGI was > 100 µM.

The compounds below were run on UACC-257 melanoma (assay: NCI-60 cell line screen, 48 h).
For `Cc1nc2sc3ccccc3n2c(=O)c1N=Nc1ccc(Cl)cc1`, the TGI was > 100 µM.
For `O=C1O[C@H](c2ccc3c(c2)OCO3)[C@H]2CO[C@@H](c3ccc4c(c3)OCO4)[C@@H]12`, the TGI was > 100 µM.
For `Cc1ccc2c(c1)C(=O)C1(C2)Cc2cccc(C)c2C1=O` (centres undefined), the TGI was > 100 µM.
`O=C1NC(=O)C(CC2CCCCCCCCCCC2=O)C(=O)N1` (centres undefined) was tested, and the TGI was > 100 µM.
`Cc1cc(NCc2ccccc2)c2ccccc2[n+]1CCCCCCCCCC[n+]1c(C)cc(NCc2ccccc2)c2ccccc21` was tested, and the TGI was 1.31 µM.
In the case of `Nc1ccc(S(=O)(=O)Nc2nccs2)cc1`, the TGI is reported as > 100 µM.
In the case of `CCOc1ccc(/C=C2/C(=O)N=C(NC(C)=O)N2C)cc1`, the TGI is reported as > 100 µM.

These compounds were tested on NCI-H23 lung (assay: NCI-60 cell line screen, 48 h).
In the case of `Cc1nc2sc3ccccc3n2c(=O)c1N=Nc1ccc(Cl)cc1`, the TGI is reported as > 100 µM.
In the case of `O=C1O[C@H](c2ccc3c(c2)OCO3)[C@H]2CO[C@@H](c3ccc4c(c3)OCO4)[C@@H]12`, the TGI is reported as > 100 µM.
`Cc1ccc2c(c1)C(=O)C1(C2)Cc2cccc(C)c2C1=O` (centres undefined) was tested, and the TGI was > 100 µM.
In the case of `O=C1NC(=O)C(CC2CCCCCCCCCCC2=O)C(=O)N1` (centres undefined), the TGI is reported as > 100 µM.
With `Cc1cc(NCc2ccccc2)c2ccccc2[n+]1CCCCCCCCCC[n+]1c(C)cc(NCc2ccccc2)c2ccccc21` the TGI was 1.86 µM.
With `Nc1ccc(S(=O)(=O)Nc2nccs2)cc1` the TGI was > 100 µM.
With `CCOc1ccc(/C=C2/C(=O)N=C(NC(C)=O)N2C)cc1` the TGI was > 100 µM.

These compounds were tested on NCI-H522 lung (assay: NCI-60 cell line screen, 48 h).
`Cc1nc2sc3ccccc3n2c(=O)c1N=Nc1ccc(Cl)cc1` was tested, and the TGI was > 100 µM.
For `O=C1O[C@H](c2ccc3c(c2)OCO3)[C@H]2CO[C@@H](c3ccc4c(c3)OCO4)[C@@H]12`, the TGI was > 100 µM.
With `Cc1ccc2c(c1)C(=O)C1(C2)Cc2cccc(C)c2C1=O` (centres undefined) the TGI was > 100 µM.
For `O=C1NC(=O)C(CC2CCCCCCCCCCC2=O)C(=O)N1` (centres undefined), the TGI was > 100 µM.
Compound `Cc1cc(NCc2ccccc2)c2ccccc2[n+]1CCCCCCCCCC[n+]1c(C)cc(NCc2ccccc2)c2ccccc21` has a TGI of 44.3 µM.
With `Nc1ccc(S(=O)(=O)Nc2nccs2)cc1` the TGI was > 100 µM.

Each compound was assayed on EKVX NSCLC (assay: NCI-60 cell line screen, 48 h).
In the case of `Cc1nc2sc3ccccc3n2c(=O)c1N=Nc1ccc(Cl)cc1`, the TGI is reported as > 100 µM.
For `O=C1O[C@H](c2ccc3c(c2)OCO3)[C@H]2CO[C@@H](c3ccc4c(c3)OCO4)[C@@H]12`, the TGI was > 100 µM.
`Cc1ccc2c(c1)C(=O)C1(C2)Cc2cccc(C)c2C1=O` (centres undefined) was tested, and the TGI was > 100 µM.
`O=C1NC(=O)C(CC2CCCCCCCCCCC2=O)C(=O)N1` (centres undefined) was tested, and the TGI was > 100 µM.
In the case of `Cc1cc(NCc2ccccc2)c2ccccc2[n+]1CCCCCCCCCC[n+]1c(C)cc(NCc2ccccc2)c2ccccc21`, the TGI is reported as 13.4 µM.
For `Nc1ccc(S(=O)(=O)Nc2nccs2)cc1`, the TGI was > 100 µM.
In the case of `CCOc1ccc(/C=C2/C(=O)N=C(NC(C)=O)N2C)cc1`, the TGI is reported as > 100 µM.

These compounds were tested on SNB-75 CNS (assay: NCI-60 cell line screen, 48 h).
In the case of `Cc1nc2sc3ccccc3n2c(=O)c1N=Nc1ccc(Cl)cc1`, the TGI is reported as > 100 µM.
`Cc1ccc2c(c1)C(=O)C1(C2)Cc2cccc(C)c2C1=O` (centres undefined) was tested, and the TGI was > 100 µM.
`O=C1NC(=O)C(CC2CCCCCCCCCCC2=O)C(=O)N1` (centres undefined) was tested, and the TGI was > 100 µM.
For `Cc1cc(NCc2ccccc2)c2ccccc2[n+]1CCCCCCCCCC[n+]1c(C)cc(NCc2ccccc2)c2ccccc21`, the TGI was 1.94 µM.
In the case of `Nc1ccc(S(=O)(=O)Nc2nccs2)cc1`, the TGI is reported as > 100 µM.
In the case of `CCOc1ccc(/C=C2/C(=O)N=C(NC(C)=O)N2C)cc1`, the TGI is reported as > 100 µM.

What follows are compounds tested on SNB-19 CNS (assay: NCI-60 cell line screen, 48 h).
`Cc1nc2sc3ccccc3n2c(=O)c1N=Nc1ccc(Cl)cc1` was tested, and the TGI was > 100 µM.
For `O=C1O[C@H](c2ccc3c(c2)OCO3)[C@H]2CO[C@@H](c3ccc4c(c3)OCO4)[C@@H]12`, the TGI was > 100 µM.
In the case of `Cc1ccc2c(c1)C(=O)C1(C2)Cc2cccc(C)c2C1=O` (centres undefined), the TGI is reported as > 100 µM.
With `O=C1NC(=O)C(CC2CCCCCCCCCCC2=O)C(=O)N1` (centres undefined) the TGI was > 100 µM.
For `Cc1cc(NCc2ccccc2)c2ccccc2[n+]1CCCCCCCCCC[n+]1c(C)cc(NCc2ccccc2)c2ccccc21`, the TGI was > 100 µM.
`Nc1ccc(S(=O)(=O)Nc2nccs2)cc1` was tested, and the TGI was > 100 µM.
For `CCOc1ccc(/C=C2/C(=O)N=C(NC(C)=O)N2C)cc1`, the TGI was > 100 µM.

What follows are compounds tested on SK-OV-3 ovarian (assay: NCI-60 cell line screen, 48 h).
For `Cc1nc2sc3ccccc3n2c(=O)c1N=Nc1ccc(Cl)cc1`, the TGI was > 100 µM.
With `O=C1O[C@H](c2ccc3c(c2)OCO3)[C@H]2CO[C@@H](c3ccc4c(c3)OCO4)[C@@H]12` the TGI was > 100 µM.
`Cc1ccc2c(c1)C(=O)C1(C2)Cc2cccc(C)c2C1=O` (centres undefined) was tested, and the TGI was > 100 µM.
`O=C1NC(=O)C(CC2CCCCCCCCCCC2=O)C(=O)N1` (centres undefined) was tested, and the TGI was > 100 µM.
With `Cc1cc(NCc2ccccc2)c2ccccc2[n+]1CCCCCCCCCC[n+]1c(C)cc(NCc2ccccc2)c2ccccc21` the TGI was 6.85 µM.
For `Nc1ccc(S(=O)(=O)Nc2nccs2)cc1`, the TGI was > 100 µM.
With `CCOc1ccc(/C=C2/C(=O)N=C(NC(C)=O)N2C)cc1` the TGI was > 100 µM.

What follows are compounds tested on HT29 colon (assay: NCI-60 cell line screen, 48 h).
With `Cc1nc2sc3ccccc3n2c(=O)c1N=Nc1ccc(Cl)cc1` the TGI was > 100 µM.
For `O=C1O[C@H](c2ccc3c(c2)OCO3)[C@H]2CO[C@@H](c3ccc4c(c3)OCO4)[C@@H]12`, the TGI was > 100 µM.
`Cc1ccc2c(c1)C(=O)C1(C2)Cc2cccc(C)c2C1=O` (centres undefined) was tested, and the TGI was > 100 µM.
With `O=C1NC(=O)C(CC2CCCCCCCCCCC2=O)C(=O)N1` (centres undefined) the TGI was > 100 µM.
`Cc1cc(NCc2ccccc2)c2ccccc2[n+]1CCCCCCCCCC[n+]1c(C)cc(NCc2ccccc2)c2ccccc21` showed a TGI of 1.63 µM.
For `Nc1ccc(S(=O)(=O)Nc2nccs2)cc1`, the TGI was > 100 µM.
For `CCOc1ccc(/C=C2/C(=O)N=C(NC(C)=O)N2C)cc1`, the TGI was > 100 µM.

Each compound was assayed on UO-31 renal (assay: NCI-60 cell line screen, 48 h).
In the case of `O=C1O[C@H](c2ccc3c(c2)OCO3)[C@H]2CO[C@@H](c3ccc4c(c3)OCO4)[C@@H]12`, the TGI is reported as > 100 µM.
In the case of `Cc1ccc2c(c1)C(=O)C1(C2)Cc2cccc(C)c2C1=O` (centres undefined), the TGI is reported as > 100 µM.
